Test results published in patent US9868707B2, “Small molecule agonists of neurotensin receptor 1” (SANFORD-BURNHAM MEDICAL RESEARCH INSTITUTE, priority 2012, dated 2018).

Assays:
[1] = Metabolic stability in human hepatic microsomes; assay type: in vitro ADME
Protocol: Hepatic metabolic stability was determined using established protocols (Di, L., Kerns, E. H., Hong, Y., Kleintop, T. A., McConnell, O. J., and Huryn, D. M. 2003. Optimization of a higher throughput microsomal stability screening assay for profiling drug discovery candidates. J Biomol Screen 8:453-462). Briefly, the compound (1.0 and 10.0 μM) was preincubated for 10 min at 37° C. in potassium phosphate buffer (pH 7.4) together with 0.5 mg/mL mouse or human hepatic microsomes (Xenotech, Kansas City). The cofactor mixture comprising NADP, G6P, and G6P-DH (BD Biosciences) was added, and aliquots were taken after 0 and 60 min. Samples were analyzed on an Acquity UPLC, coupled with a sample organizer, and interfaced with a triple quadrupole ABI 4000 LC/MS/MS using the methodology described above. The percentage of the compound remaining after a 60 min incubation period was calculated according the following equation: [(area at time 60 min)/(area at time 0 min)]×100%.

NTR1 = NTR1 (Homo sapiens, UniProt P30989); test: NTR1 high-content imaging (HCS) dose response, NTR1-U2OS cells; assay type: cell-based; set-up: host or cells: U2OS osteosarcoma; details: n = 4 unless otherwise noted
Sequence of NTR1 (P30989 whole entry, species assumed): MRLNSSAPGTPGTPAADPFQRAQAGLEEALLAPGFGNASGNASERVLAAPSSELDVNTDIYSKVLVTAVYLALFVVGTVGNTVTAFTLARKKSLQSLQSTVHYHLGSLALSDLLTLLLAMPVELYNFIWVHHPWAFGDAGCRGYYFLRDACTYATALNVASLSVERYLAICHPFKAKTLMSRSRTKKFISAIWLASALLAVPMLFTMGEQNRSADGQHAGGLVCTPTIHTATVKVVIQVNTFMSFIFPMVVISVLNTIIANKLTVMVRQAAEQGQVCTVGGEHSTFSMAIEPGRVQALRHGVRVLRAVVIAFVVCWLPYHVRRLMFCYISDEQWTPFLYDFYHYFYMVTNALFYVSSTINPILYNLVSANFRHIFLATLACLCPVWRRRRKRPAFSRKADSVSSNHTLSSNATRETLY
Excerpt: The cell lines utilized in the high-content imaging assays, which include the NTR1-, NTR2-, and GPR35-U2OS osteosarcomas, were obtained from the laboratory of Dr. Lawrence Barak at the Duke University Medical Center. The media used in the culture of the cell lines, as well as the assays themselves, consisted of Minimum Essential Medium (15-010-CM) and L-glutamine (25-005-CL) from Cellgro/Mediatech (Manassas, Va.), fetal bovine serum (SH30396.03) from Hyclone (Logan, Utah), penicillin-streptomycin solution (PS-20) from Omega Scientific in Tarzana, Calif., G418 (ant-gn-1) from Invivogen (San Diego, Calif.), and zeocin (R250-01) from Invitrogen (Carlsbad, Calif.). Cell lines were cultured in T225 tissue culture flasks (431082) supplied by Corning (Corning, N.Y.). Additional reagents employed include Dulbecco's Phosphate-Buffered Saline (DPBS) (21-031CV) from Cellgro/Mediatech, Trypsin-EDTA 0.05% (25300) from Invitrogen, paraformaldehyde (30528954) from Acros Organics (Geel, Belgium), Hoechst 33342 (H3570) from Invitrogen. The high-content assays were run in 1536-well plates (29326) supplied by Aurora Biotechnology (Poway, Calif.) and utilized aluminum plate seals (T592100) from E&K Scientific (Santa Clara, Calif.).
The neurotensin 1 peptide (N6383) from Sigma-Aldrich (St. Louis, Mo.) was used as a positive control in the NTR1 primary HCS assay. For the NTR2 selectivity assay, the non-specific, small molecule 3-(4-fluorophenyl)-7,8-dimethoxy-5-(4-methylbenzyl)-5H-pyrazolo[4,3-c]quinolone which was synthesized internally was used as a positive control. The GPR35 selectivity screen utilized zaprinast (ALX430-020-M010) from Alexis Biochemicals (Farmingdale, N.Y.) as a control.
The high-content imaging based NTR1 primary screen in 1536-well format was utilized to assay the MLSMR library of chemical entities in the following manner. On day one, 4 uL of a cell suspension containing 350,000 NTR1-U2OS cells per mL is added to each well of a 1536-well assay plate. Cells are plated in MEM medium containing 2.5% Fetal Bovine Serum, 1% Penicillin/Streptomycin solution, 1% L-Glutamine, 400 ug/mL G418, and 200 ug/mL Zeocin. The assay plates are then incubated overnight at 37° C., under 5% CO2. Following the overnight incubation, a volume of 60 nL of the compounds at 2 mM in DMSO (final 20 μM, 1% DMSO) was transferred to columns 5-48 of the assay plates using a LabCyte Echo Liquid Handler. Next, 60 nL of DMSO were dispensed to columns 1-4, which served as the positive and neutral control wells. […] The assay plates were centrifuged on an Eppendorf 5810 centrifuge at 1000 rpm for 1 min to ensure even liquid levels in the wells of the assay plates. The assay plates were then returned to the incubator for 1 hour. Following the hour-long incubation at 37° C., the cells in each well were fixed with 4 uL of 6% paraformaldehyde added with a Multidrop Combi. The assay plates were centrifuged as before and incubated at room temperature for 1 hour. On the Kalypsys, plates were then aspirated down to 2.5 uL per well and washed twice with 11 uL per well of DPBS, followed by a final aspiration to 2.5 uL per well. On the Combi dispenser, 5 uL of 5 ug/mL Hoechst 33342 diluted in DPBS was added to each well of assay plates. The plates were again centrifuged as previously described, sealed, and incubated for at least 1 hour prior to being loaded on a PerkinElmer Opera QEHS.
Image acquisition was performed with a 45 plate capacity loader/stacker and the following settings: 40×0.6 NA air objective, acquisition camera set to 2-by-2 binning for an image size of 688 by 512 pixels, beta-arrestin-GFP acquired using 488 nm laser excitation and 540/75 nm emission filters, DAPI (nuclei) using 365 nm Xenon lamp excitation and 450/50 nm emission filters, 3 fields per well. Image analysis was performed using the Acapella Spot Detection Algorithm. For analysis settings and the metrics employed in the data analyses, please refer to supplemental information.

COc1cc2nc(C3CC3)nc(N3CCN(c4ccccc4OC)CC3)c2cc1OC [Compound 315, 2-cyclopropyl-6,7-dimethoxy-4-(4-(2-methoxyphenyl)piperazin-1-yl)quinazoline]
Hepatic Microsome Stability (% Remaining at 1 hr) [1]: 1.36%
metabolism in vitro with liver homogenates [1]: metabolized rapidly
EC50 (NTR1; Ave. ± S.E.M., read-out: HCS NTR1 Potency EC50): 2 ± 0.1 µM
Emax (NTR1; read-out: HCS NTR1 Potency Emax): 105%
